This is an account of results in patent publication US8263606B2 (Xenon Pharmaceuticals Inc., priority 2008, dated 2012).

In data set [1] the test system is inactivated state of the channel of interest (sodium channel). The experiment in a line: Electrophysiological assay (whole cell voltage clamp, in vitro). The data set is classed as cell-based. As to conditions: affinity for the inactivated state of the channel of interest. Summed up: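 Whole-cell voltage clamp at ambient temperature on stably transfected cells; CsF-based pipette, pH 7.4 NaCl bath. Current blockade measured at holding potentials of −120 mV (resting, Kr) and one giving 10% availability (inactivated, Ki), held ≥10 s to equilibrate; apparent Kd calculated from fractional block.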

The target of the next data set is CYP3A4 (Homo sapiens, UniProt P08684). The experiment in a line: Cytochrome P450 (CYP450) Inhibition Assay, CYP3A4 (Vivid fluorescence, BOMCC substrate). As to conditions: human, P450 Baculosomes (recombinant CYP3A4), probe BOMCC (Vivid substrate).
Chain of CYP3A4 (P08684 whole entry): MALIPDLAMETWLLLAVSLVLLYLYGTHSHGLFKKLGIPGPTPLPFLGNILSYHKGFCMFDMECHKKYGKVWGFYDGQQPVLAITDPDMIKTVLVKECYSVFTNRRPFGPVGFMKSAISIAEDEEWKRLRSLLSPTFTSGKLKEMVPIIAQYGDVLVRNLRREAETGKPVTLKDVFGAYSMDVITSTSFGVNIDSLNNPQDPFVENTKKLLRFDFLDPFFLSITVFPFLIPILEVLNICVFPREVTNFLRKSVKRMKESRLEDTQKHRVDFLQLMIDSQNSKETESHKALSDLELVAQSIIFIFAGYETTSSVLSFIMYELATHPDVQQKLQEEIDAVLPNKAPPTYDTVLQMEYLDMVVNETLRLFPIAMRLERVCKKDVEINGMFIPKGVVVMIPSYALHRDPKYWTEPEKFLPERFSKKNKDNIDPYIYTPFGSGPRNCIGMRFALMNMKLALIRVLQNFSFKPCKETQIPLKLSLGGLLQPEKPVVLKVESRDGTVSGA
Another data set relates to sodium channel. Briefly: Guanidine influx assay (14C-guanidine radiotracer flux, in vitro). Type of data set: cell-based, human or rat. The conditions noted are these: guanidine influx assay using a known cell line that expresses a sodium channel. Summed up:
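Radiotracer read-out: intracellular 14C-guanidine counted after washing with guanidine-supplemented low-sodium buffer. Cells expressing human or rat channels get test agent plus aconitine activator and tracer, incubated at ambient temperature. Dilution series centred on 1 μM; IC50 by sigmoidal dose-response fit.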

A further data set concerns Nav1.4 and 1.5. The data set is classed as cell-based, rat.
The next data set has as its target Nav1.4 (Cricetulus griseus, UniProt A0A9J7H6F9). The data set is classed as cell-based, Chinese Hamster.
The next data set deals with Nav1.2 (Rattus norvegicus, UniProt P04775).
Chain of Nav1.2 (P04775 whole entry, looked up): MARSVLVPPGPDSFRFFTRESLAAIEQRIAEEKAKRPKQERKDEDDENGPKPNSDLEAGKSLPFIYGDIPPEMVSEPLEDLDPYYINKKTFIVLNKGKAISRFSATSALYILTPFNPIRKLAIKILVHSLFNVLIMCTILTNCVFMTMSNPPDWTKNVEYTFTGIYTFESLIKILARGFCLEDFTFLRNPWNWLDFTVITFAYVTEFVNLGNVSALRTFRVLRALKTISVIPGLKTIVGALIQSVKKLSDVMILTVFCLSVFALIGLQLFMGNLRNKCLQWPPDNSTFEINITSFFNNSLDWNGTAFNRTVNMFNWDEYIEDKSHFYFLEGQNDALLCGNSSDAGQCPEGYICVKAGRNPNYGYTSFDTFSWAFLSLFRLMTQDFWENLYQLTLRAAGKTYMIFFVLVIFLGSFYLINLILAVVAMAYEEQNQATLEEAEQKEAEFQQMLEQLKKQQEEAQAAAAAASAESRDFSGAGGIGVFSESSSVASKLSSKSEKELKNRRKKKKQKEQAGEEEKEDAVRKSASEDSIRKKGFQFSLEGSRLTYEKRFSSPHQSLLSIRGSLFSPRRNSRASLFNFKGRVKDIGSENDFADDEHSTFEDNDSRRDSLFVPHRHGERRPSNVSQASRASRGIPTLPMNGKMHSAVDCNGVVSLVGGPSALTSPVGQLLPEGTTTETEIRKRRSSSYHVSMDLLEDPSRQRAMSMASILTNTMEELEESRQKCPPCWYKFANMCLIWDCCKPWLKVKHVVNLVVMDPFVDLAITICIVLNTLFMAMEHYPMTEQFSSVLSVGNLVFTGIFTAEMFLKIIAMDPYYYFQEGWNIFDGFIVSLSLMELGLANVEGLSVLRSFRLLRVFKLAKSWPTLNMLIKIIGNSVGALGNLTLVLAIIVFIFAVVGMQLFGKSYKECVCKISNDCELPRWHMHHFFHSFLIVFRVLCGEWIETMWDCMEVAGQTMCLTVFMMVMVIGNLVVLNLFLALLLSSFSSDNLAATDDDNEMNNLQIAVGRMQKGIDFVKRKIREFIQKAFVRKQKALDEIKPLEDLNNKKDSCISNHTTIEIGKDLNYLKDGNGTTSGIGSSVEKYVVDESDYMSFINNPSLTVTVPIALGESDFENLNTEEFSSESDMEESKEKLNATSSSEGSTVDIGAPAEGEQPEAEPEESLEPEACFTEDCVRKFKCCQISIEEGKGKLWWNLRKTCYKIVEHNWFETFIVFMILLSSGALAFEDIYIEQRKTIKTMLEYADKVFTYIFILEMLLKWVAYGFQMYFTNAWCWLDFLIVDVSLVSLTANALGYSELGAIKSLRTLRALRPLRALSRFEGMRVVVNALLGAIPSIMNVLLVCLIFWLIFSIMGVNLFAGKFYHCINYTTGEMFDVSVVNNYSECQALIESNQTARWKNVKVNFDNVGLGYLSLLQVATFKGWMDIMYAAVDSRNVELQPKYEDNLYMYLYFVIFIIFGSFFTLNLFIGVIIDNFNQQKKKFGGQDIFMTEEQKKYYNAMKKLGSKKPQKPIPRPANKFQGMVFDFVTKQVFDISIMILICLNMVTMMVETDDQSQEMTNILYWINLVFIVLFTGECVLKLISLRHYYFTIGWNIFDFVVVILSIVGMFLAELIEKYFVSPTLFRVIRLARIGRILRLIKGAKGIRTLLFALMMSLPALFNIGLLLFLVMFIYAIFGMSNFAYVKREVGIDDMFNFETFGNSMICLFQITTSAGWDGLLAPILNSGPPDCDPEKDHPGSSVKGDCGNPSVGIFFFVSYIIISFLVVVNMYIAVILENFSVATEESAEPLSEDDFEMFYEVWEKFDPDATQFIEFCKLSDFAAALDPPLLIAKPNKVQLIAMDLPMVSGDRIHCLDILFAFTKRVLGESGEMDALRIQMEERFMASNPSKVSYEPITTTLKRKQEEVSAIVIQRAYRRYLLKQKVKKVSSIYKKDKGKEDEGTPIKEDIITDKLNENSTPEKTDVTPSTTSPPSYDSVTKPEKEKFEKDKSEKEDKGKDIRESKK
In another data set the test system is Nav1.9 and Nav1.7. Type of data set: cell-based, Human.
A further data set has as its target Nav1.8 (Homo sapiens, UniProt Q9Y5Y9). Type of data set: cell-based.
The conditions of data set [2]: rat; intravenous application; concentrations that do not affect general behaviour and motor function; cited from earlier work.

Chain of Nav1.8 (Q9Y5Y9 whole entry, looked up): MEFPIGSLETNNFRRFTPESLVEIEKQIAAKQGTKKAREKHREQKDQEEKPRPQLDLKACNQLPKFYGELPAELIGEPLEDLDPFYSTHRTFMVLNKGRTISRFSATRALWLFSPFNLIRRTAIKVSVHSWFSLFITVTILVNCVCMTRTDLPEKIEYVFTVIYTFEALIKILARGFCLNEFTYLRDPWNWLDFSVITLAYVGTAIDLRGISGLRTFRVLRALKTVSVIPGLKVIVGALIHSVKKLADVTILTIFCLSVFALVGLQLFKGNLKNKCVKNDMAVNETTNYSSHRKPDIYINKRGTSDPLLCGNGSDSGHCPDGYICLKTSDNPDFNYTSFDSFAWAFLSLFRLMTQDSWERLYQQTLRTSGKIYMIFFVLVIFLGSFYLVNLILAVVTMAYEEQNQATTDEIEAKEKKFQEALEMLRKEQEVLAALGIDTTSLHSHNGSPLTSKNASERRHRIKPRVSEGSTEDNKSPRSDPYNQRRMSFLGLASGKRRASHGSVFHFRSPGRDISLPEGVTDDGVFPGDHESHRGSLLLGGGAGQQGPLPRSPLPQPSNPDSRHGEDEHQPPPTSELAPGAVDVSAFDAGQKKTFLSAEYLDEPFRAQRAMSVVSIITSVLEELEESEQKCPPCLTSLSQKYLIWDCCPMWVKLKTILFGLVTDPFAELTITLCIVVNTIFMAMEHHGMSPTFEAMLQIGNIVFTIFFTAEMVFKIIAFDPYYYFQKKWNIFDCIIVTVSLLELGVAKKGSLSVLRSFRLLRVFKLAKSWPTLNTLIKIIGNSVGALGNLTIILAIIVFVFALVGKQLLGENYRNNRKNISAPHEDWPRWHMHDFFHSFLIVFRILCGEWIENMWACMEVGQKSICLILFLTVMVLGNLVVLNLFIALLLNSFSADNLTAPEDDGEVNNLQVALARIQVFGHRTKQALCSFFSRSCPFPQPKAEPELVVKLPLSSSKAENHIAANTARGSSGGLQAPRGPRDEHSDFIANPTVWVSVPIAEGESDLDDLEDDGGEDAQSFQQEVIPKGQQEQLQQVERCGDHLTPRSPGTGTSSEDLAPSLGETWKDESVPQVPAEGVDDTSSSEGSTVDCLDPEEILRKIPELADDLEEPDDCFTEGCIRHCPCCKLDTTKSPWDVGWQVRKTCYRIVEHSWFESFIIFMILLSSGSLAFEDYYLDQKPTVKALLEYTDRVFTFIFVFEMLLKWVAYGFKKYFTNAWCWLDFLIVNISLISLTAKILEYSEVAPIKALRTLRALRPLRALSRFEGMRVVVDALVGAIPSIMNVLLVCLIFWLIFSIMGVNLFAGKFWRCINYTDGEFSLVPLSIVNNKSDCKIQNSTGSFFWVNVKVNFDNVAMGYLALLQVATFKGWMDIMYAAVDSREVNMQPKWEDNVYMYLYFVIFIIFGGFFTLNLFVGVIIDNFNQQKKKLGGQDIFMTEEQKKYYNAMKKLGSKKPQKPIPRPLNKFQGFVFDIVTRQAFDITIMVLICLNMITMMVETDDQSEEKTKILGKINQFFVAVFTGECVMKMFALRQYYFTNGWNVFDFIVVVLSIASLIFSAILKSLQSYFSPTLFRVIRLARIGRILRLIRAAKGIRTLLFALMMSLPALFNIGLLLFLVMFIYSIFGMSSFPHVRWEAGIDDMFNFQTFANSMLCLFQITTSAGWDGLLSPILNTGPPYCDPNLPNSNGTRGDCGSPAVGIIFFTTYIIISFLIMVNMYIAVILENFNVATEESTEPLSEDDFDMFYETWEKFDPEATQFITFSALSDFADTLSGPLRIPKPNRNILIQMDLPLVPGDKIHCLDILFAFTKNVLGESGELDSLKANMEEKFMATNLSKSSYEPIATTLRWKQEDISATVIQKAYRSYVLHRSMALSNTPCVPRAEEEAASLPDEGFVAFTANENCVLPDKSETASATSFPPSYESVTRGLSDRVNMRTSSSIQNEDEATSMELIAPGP

As a reminder, the melting point is the temperature of the solid-liquid transition. Usually inhibition stands for how much of the control response was suppressed. A word on the IC50: it is the concentration that inhibits the measured activity by half. In turn, `CN(C)C(=O)c1ccc(CN2C(=O)C3(COc4cc5c(cc43)OCCO5)c3ccccc32)o1` (centres unmarked) [Example 11.33, N,N-dimethyl-5-[(2′-oxo-2,3-dihydrospiro[furo[2,3-g][1,4]benzodioxine-8,3′-indol]-1′(2′H)-yl)methyl]furan-2-carboxamide] yielded a melting point of 224 to 226 °C. The same molecule came in with a Ki in [1] of less than 0.3 µM. The inhibition at 10 µM on CYP3A4 is greater than 50%. Moreover, the IC50 in the data set on sodium channel lay within 0.1 to 1 µM.

Molecule `Cc1nc(-c2ccc3c(c2)OCC32C(=O)N(Cc3ccccn3)c3ccccc32)no1` (centres unmarked) [Example 11.85, 6-(5-methyl-1,2,4-oxadiazol-3-yl)-1′-(pyridin-2-ylmethyl)spiro[1-benzofuran-3,3′-indol]-2′(1′H)-one] displayed a melting point of 147 to 148 °C. In data set [1], this molecule returned a Ki greater than 0.3 µM. On CYP3A4, the inhibition at 10 µM was less than 50%. In addition, the IC50 in the data set on sodium channel was 0.1 to 1 µM.

Take `NC1=N[C@H](O)[C@H]2[C@H]3O[C@]4(O)O[C@@H]([C@@H](O)[C@@]2(N1)[C@@H]4O)[C@]3(O)CO` [TTX, tetrodotoxin]: the “block of the increase in [14C] guanidine influx” value with Nav1.4 and 1.5 is given as “partially blocked by TTX at 100 nM”; on Nav1.4, “completely blocked using TTX”; at Nav1.2, “guanidine influx was completely”; with Nav1.9 and Nav1.7, “background was partially blocked”; at Nav1.8, “TTX partially blocked influx”.

`CCN(CC)CC(=O)Nc1c(C)cccc1C` [lidocaine]: the “effect on ectopic activity and tactile allodynia” value in data set [2] is “suppress the ectopic activity and reverse the tactile allodynia”.
